From PubChem BioAssay AID1919017 (Molecular Pharmacology Branch, DTP, NCI, 2023)

System: SW1271 complex spheroids with HUVEC/MSC, growth, % test/control
Test: Anticancer human tumor SW1271 cell line growth inhibition [AhR];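 also: spheroids exposed to agents for 7 days before readout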
Conditions: for IC50: curve of first compound; for viability, T/C: stronger effect = lower value
Excerpt: Multicellular complex tumor spheroid response to aryl hydrocarbon receptor antagonists in combination with a variety of drugs and investigational agents in selected tumor cell lines
The current study was undertaken to assess response to aryl hydrocarbon receptor antagonists in combination with standard-of-care drugs and investigational agents in solid tumor complex spheroid models. Complex spheroids include a stromal component modeled by human endothelial cells (HUVEC) and fibroblasts modeled by human mesenchymal stem cells (MSCs). The concentration ranges selected for each drug and investigational agent were based upon clinically achievable concentrations if the clinical Cmax of the agent was known.
Compounds. The drugs and investigational agents: BAY 2416964 (NSC825713), GNF351 (NSC835774), CH-223191 (NSC835775), CPI-455 (NSC825282), aza-TdCyd (NSC777586), decitabine (NSC127716), belinostat (NSC758774), entinostat (NSC756642), pevonedistat (NSC761192), tazemetostat (NSC777109), talazoparib (NSC765396), olaparib (NSC753686), selinexor (NSC780203), nedisertib (M3814, NSC802822), bortezomib (NSC756655), venetoclax (NSC766270), doxorubicin (NSC123127), elimusertib (BAY189344, NSC800525), ceralasertib (AZD6738, NSC777638), TAK-243 (NSC785004), alisertib (NSC759677), etoposide (NSC141540), topotecan (NSC609699), eribulin (NSC707389), gemcitabine (NSC613327), carboplatin (NSC241240), cisplatin (NSC119875), and SN-38 (NSC673596) were obtained from the National Cancer Institute (NCI) Developmental Therapeutics Program Chemical Repository (32). The FDA-approved anticancer drug set is available from the Developmental Therapeutics Program at https://dtp.cancer.gov/organization/dscb/obtaining/available plates.htm. […] The stock solutions were prepared in dimethyl sulfoxide (DMSO, Sigma-Aldrich, St. Louis, MO, cat. D2650), except for the platinum compounds which were prepared in saline (Quality Biological, Gaithersburg, MD, cat. 114-055-101), at 800-fold the tested concentration and stored at -70 degrees C prior to their use. All drugs and investigational agents were tested over a range starting from a high concentration at or near the clinical Cmax and decreasing in half-log increments. If the clinical Cmax for an agent had not been determined, the highest concentration tested was 10 microM (Table 1).
Cell Culture. All cells were maintained in an incubator at 37 degrees C and 5% CO2 with 95% humidity. The PDC lines were cultured according to standard operating procedures established by the NCI PDMR (https://pdmr.cancer.gov). Briefly, all PDCs were thawed and cultured in Matrigel-coated flasks prepared with a working solution of 1X Ham's F-12 nutrient mix, without supplementation (Invitrogen, Waltham, MA, cat. 11765054), 100 U/mL penicillin-streptomycin (Invitrogen, cat. 15140122), and 2.5% Matrigel (Corning Inc., Corning, NY, cat. 354248) for the first three passages. All PDCs were cultured in complete DMEM/F-12 media containing advanced DMEM/F-12 (Invitrogen, cat. 12634028), 4.9% defined fetal bovine serum, heat inactivated (HyClone Laboratories Inc., Logan, UT, cat. SH30070.03HI), 389 ng/mL hydrocortisone (Sigma-Aldrich, cat. H4001), 9.7 ng/mL human EGF recombinant protein (Invitrogen, cat. PHG0313), 23.4 microg/mL adenine (Sigma-Aldrich, cat. A2786), 97.3 U/mL penicillin-streptomycin (Invitrogen, cat. 15140122), 1.9 mM L-glutamine (Invitrogen, cat. 25030081), and 9.7 microM Y-27632 dihydrochloride (Tocris Bioscience, Bristol, United Kingdom, cat. 1254). The PDCs were cultured in complete DMEM/F12 media without 10 microM Y-27632 dihydrochloride for at least two passages prior to the screen. The established cell lines NCI-H1341 and […] were cultured in DMEM/F-12, HEPES (Invitrogen, cat. 11330032), 5% defined fetal bovine serum (HyClone Laboratories Inc., cat. SH30070.03), ITS premix universal culture supplement [insulin (5 microg/mL), transferrin (5 microg/mL), and selenious acid (5 ng/mL)] […]

[1] = second compound 0.1 µM, first compound 0.0316 µM
[2] = second compound 0.1 µM, first compound 0.1 µM
[3] = second compound 0.1 µM, first compound 0.316 µM
[4] = second compound 0.1 µM, first compound 1 µM
[5] = second compound 0.1 µM, first compound 3.16 µM
[6] = second compound 0.1 µM, first compound 10 µM
[7] = second compound 0.316 µM, first compound 0.0316 µM
[8] = second compound 0.316 µM, first compound 0.1 µM
[9] = second compound 0.316 µM, first compound 0.316 µM
[10] = second compound 0.316 µM, first compound 1 µM
[11] = second compound 0.316 µM, first compound 3.16 µM
[12] = second compound 0.316 µM, first compound 10 µM
[13] = second compound 1 µM, first compound 0.0316 µM
[14] = second compound 1 µM, first compound 0.1 µM
[15] = second compound 1 µM, first compound 0.316 µM
[16] = second compound 1 µM, first compound 1 µM
[17] = second compound 1 µM, first compound 3.16 µM
[18] = second compound 1 µM, first compound 10 µM
[19] = second compound 3.16 µM, first compound 0.0316 µM
[20] = second compound 3.16 µM, first compound 0.1 µM
[21] = second compound 3.16 µM, first compound 0.316 µM
[22] = second compound 3.16 µM, first compound 1 µM
[23] = second compound 3.16 µM, first compound 3.16 µM
[24] = second compound 3.16 µM, first compound 10 µM
[25] = second compound 10 µM, first compound 0.0316 µM
[26] = second compound 10 µM, first compound 0.1 µM
[27] = second compound 10 µM, first compound 0.316 µM
[28] = second compound 10 µM, first compound 1 µM
[29] = second compound 10 µM, first compound 3.16 µM
[30] = second compound 10 µM, first compound 10 µM

CCc1c2c(nc3ccc(O)cc13)-c1cc3c(c(=O)n1C2)COC(=O)[C@]3(O)CC + CC(CO)NC(=O)c1cc(-c2ccc(Cl)cc2)nn(-c2cnn(C)c2)c1=O
IC50 (second compound 0.1 µM): 0.0299 µM | IC50 (second compound 0.316 µM): > 0.3 µM | IC50 (second compound 1 µM): 0.138 µM | IC50 (second compound 3.16 µM): > 0.3 µM | IC50 (second compound 10 µM): > 0.3 µM | viability, T/C (second compound 0.1 µM, first compound 0.000949 µM): 83% | viability, T/C (second compound 0.1 µM, first compound 0.003 µM): 83.5% | viability, T/C (second compound 0.1 µM, first compound 0.00949 µM): 66% | viability, T/C (second compound 0.1 µM, first compound 0.03 µM): 51% | viability, T/C (second compound 0.1 µM, first compound 0.0949 µM): 48.2% | viability, T/C (second compound 0.1 µM, first compound 0.3 µM): 47.3% | viability, T/C (second compound 0.316 µM, first compound 0.000949 µM): 72.8% | viability, T/C (second compound 0.316 µM, first compound 0.003 µM): 79% | viability, T/C (second compound 0.316 µM, first compound 0.00949 µM): 67.9% | viability, T/C (second compound 0.316 µM, first compound 0.03 µM): 63.2% | viability, T/C (second compound 0.316 µM, first compound 0.0949 µM): 56.3% | viability, T/C (second compound 0.316 µM, first compound 0.3 µM): 58.8% | viability, T/C (second compound 1 µM, first compound 0.000949 µM): 73.4% | viability, T/C (second compound 1 µM, first compound 0.003 µM): 85.9% | viability, T/C (second compound 1 µM, first compound 0.00949 µM): 56.6% | viability, T/C (second compound 1 µM, first compound 0.03 µM): 67% | viability, T/C (second compound 1 µM, first compound 0.0949 µM): 54% | viability, T/C (second compound 1 µM, first compound 0.3 µM): 42% | viability, T/C (second compound 3.16 µM, first compound 0.000949 µM): 74.1% | viability, T/C (second compound 3.16 µM, first compound 0.003 µM): 73.8% | viability, T/C (second compound 3.16 µM, first compound 0.00949 µM): 58% | viability, T/C (second compound 3.16 µM, first compound 0.03 µM): 55.1% | viability, T/C (second compound 3.16 µM, first compound 0.0949 µM): 49.1% | viability, T/C (second compound 3.16 µM, first compound 0.3 µM): 50.5% | viability, T/C (second compound 10 µM, first compound 0.000949 µM): 71.6% | viability, T/C (second compound 10 µM, first compound 0.003 µM): 65.8% | viability, T/C (second compound 10 µM, first compound 0.00949 µM): 55.5% | viability, T/C (second compound 10 µM, first compound 0.03 µM): 58.3% | viability, T/C (second compound 10 µM, first compound 0.0949 µM): 45.7% | viability, T/C (second compound 10 µM, first compound 0.3 µM): 54.7%

Nc1ccn(C2OC(CO)C(O)C2(F)F)c(=O)n1 (stereo not given) + CC(CO)NC(=O)c1cc(-c2ccc(Cl)cc2)nn(-c2cnn(C)c2)c1=O
IC50 (second compound 0.1 µM): > 10 µM | IC50 (second compound 0.316 µM): 2.07 µM | IC50 (second compound 1 µM): > 10 µM | IC50 (second compound 3.16 µM): 3.71 µM | IC50 (second compound 10 µM): 5.27 µM | viability, T/C [1]: 59% | viability, T/C [2]: 55% | viability, T/C [3]: 52.6% | viability, T/C [4]: 60.9% | viability, T/C [5]: 54.9% | viability, T/C [6]: 63.9% | viability, T/C [7]: 56.5% | viability, T/C [8]: 59.8% | viability, T/C [9]: 46.3% | viability, T/C [10]: 50.3% | viability, T/C [11]: 54.9% | viability, T/C [12]: 46.1% | viability, T/C [13]: 53.1% | viability, T/C [14]: 60.3% | viability, T/C [15]: 59% | viability, T/C [16]: 61.2% | viability, T/C [17]: 53.6% | viability, T/C [18]: 55.3% | viability, T/C [19]: 48.4% | viability, T/C [20]: 58.7% | viability, T/C [21]: 56.1% | viability, T/C [22]: 59.4% | viability, T/C [23]: 47.8% | viability, T/C [24]: 42.4% | viability, T/C [25]: 45.3% | viability, T/C [26]: 58.1% | viability, T/C [27]: 57.4% | viability, T/C [28]: 59.8% | viability, T/C [29]: 54.5% | viability, T/C [30]: 44%

O=C(c1cc(Cc2n[nH]c(=O)c3ccccc23)ccc1F)N1CCN(C(=O)C2CC2)CC1 + CC(CO)NC(=O)c1cc(-c2ccc(Cl)cc2)nn(-c2cnn(C)c2)c1=O
IC50 (second compound 0.1 µM): > 10 µM | IC50 (second compound 0.316 µM): > 10 µM | IC50 (second compound 1 µM): > 10 µM | IC50 (second compound 3.16 µM): > 10 µM | IC50 (second compound 10 µM): > 10 µM | viability, T/C [1]: 84.4% | viability, T/C [2]: 95.4% | viability, T/C [3]: 100% | viability, T/C [4]: 82.1% | viability, T/C [5]: 88.2% | viability, T/C [6]: 78.8% | viability, T/C [7]: 79.8% | viability, T/C [8]: 77.9% | viability, T/C [9]: 75.8% | viability, T/C [10]: 81.8% | viability, T/C [11]: 77.7% | viability, T/C [12]: 75.8% | viability, T/C [13]: 79.7% | viability, T/C [14]: 99.7% | viability, T/C [15]: 83.8% | viability, T/C [16]: 67.8% | viability, T/C [17]: 78% | viability, T/C [18]: 103% | viability, T/C [19]: 76.9% | viability, T/C [20]: 79.3% | viability, T/C [21]: 79.8% | viability, T/C [22]: 92.2% | viability, T/C [23]: 68.5% | viability, T/C [24]: 82.5% | viability, T/C [25]: 67.8% | viability, T/C [26]: 67.3% | viability, T/C [27]: 76.2% | viability, T/C [28]: 81.7% | viability, T/C [29]: 81.2% | viability, T/C [30]: 60.6%
